In article PMC7212467, “Lipid-Mediated Insertion of Toll-Like Receptor (TLR) Ligands for Facile Immune Cell Engineering” (Frontiers in Immunology, 2020):

Columns and labels:
CD4+ and CD8+ T cells = assay: T-cell activation assay (CFSE proliferation, αCD3/CD28 beads); type: cell-based, mouse; settings: αCD3/CD28 beads 3 days, CFSE dilution
Description: (§1) Naïve T cells were labeled with 5 μM of carboxyfluorescein succinimidyl ester (CFSE, ThermoFisher). Labeled cells were cultured in RPMI 1640 media and supplemented with 10% FBS as well as αCD3/CD28 coated Dynabeads^TM (Thermo) at a 1:5 bead to T cell ratio after depoting of lipid-CpG, Pam2CSK4, and/or Pam3CSK4 ligands. Non-depoted T cells were treated with soluble lipid-CpG (5 μM), Pam2CSK4 (10 μg/mL), and/or Pam3CSK4 (10 μg/mL). Cell proliferation was measured by CFSE dilution after 3 days, and cell activation was measured by fluorescent staining for CD25 (clone PC61; PE). Cell proliferation index and division index were calculated using FlowJo LLC software. Proliferation index is defined as the total number of cell divisions divided by the number of divided cells, whereas division index is the total number of cell divisions divided by the number of total original cells ([24]). Paracrine-enhanced proliferation of bystander T cells was measured as described above, with αCD3/CD28 beads added at a 2:5 bead to T-cell ratio.

polyclonal T cells = assay: Cytokine quantification in T-cell supernatants by ELISA; type: cell-based, mouse; settings: supernatants day 2, ELISA, αCD3/CD28 bead-stimulated T cells, n = 5
Description: as §1
T-cell activation was analyzed by collecting supernatants on day 2 post-activation for IL-2, IL-4, and IFNγ quantification by ELISA per manufacturer's instructions (BioLegend).

purified mouse T cells = assay: ELISA quantification of depoted lipid conjugates per T cell; type: cell-based; settings: for ng/mL (equivalent in solution): Table S1, estimated dose on depoted T cells; for # Ligands/T cell: Table S1, quantitation of cell surface TLR2 ligands by ELISA, depoted 10 μg/mL, 1 h; for fold increase in number of depoted molecules per T cell, 0.1 to 10 μg/mL depoting concentration: biotinylated ligand, cell lysate, streptavidin-HRP/TMB absorbance 450 nm, n = 3-4 independent samples
Description: (§2) Unless specified otherwise (in Figure 2), splenocytes, isolated B cells, or isolated T cells were incubated with CpG (5 μM), lipid-CpG (5 μM), Pam2CSK4 (10 μg/mL), or Pam3CSK4 (10 μg/mL) for 1 h in complete RPMI 1640 media supplemented with 10% fetal bovine serum. Splenocytes or T cells were then washed 3 times with PBS plus 1% bovine serum albumin to remove unbound ligand.
One million purified T cells were depoted with FAM-labeled lipid-CpG, biotinylated Pam2CSK4, or biotinylated Pam3CSK4 as described above, and then lysed with Glo lysis buffer (Promega) for 10 min at 25°C. Lysates were collected and plated onto Nunc MaxiSorp ELISA plates (Thermo). After 2 h of incubation at 25°C, FAM-labeled lipid-CpG was excited at 488 nm, and fluorescent emission at 520 nm was quantified by a microplate fluorescence reader. For Pam2CSK4 and Pam3CSK4 samples, horseradish peroxidase (HRP)-labeled streptavidin was added for 2 h incubation at 25°C, and then TMB substrate (Thermo) was added to observe changes in absorbance at 450 nm with a microplate spectrophotometer (BioTek).

[1] = tested on: bystander B cells (TLR2+ APCs); assay: Bystander B-cell activation by TLR2 ligand-depoted T cells; type: cell-based, mouse; settings: for CD69 upregulation on B cells (fold MFI) / MHC II upregulation on B cells (fold MFI): T cells depoted 10 μg/mL 1 h, co-culture with B cells 2 days, MFI normalized to unstimulated B cells, n = 5-6 independent experiments; for CD69 expression, depoted vs same dose of soluble ligand / MHC II expression, depoted vs same dose of soluble ligand: soluble dose 10 ng/mL Pam2CSK4, 2 ng/mL Pam3CSK4; for B-cell activation by dose-matched soluble ligand: 10 ng/mL Pam2CSK4, 2 ng/mL Pam3CSK4
Description: as §2
Naïve or primed T cells were rested in complete RPMI 1640 media and supplemented with 10% FBS after depoting with Pam2CSK4 or Pam3CSK4 as described above. At selected time-points (0, 1, 2, 5, or 8 days post-depoting), T cells were washed and fixed with 4% paraformaldehyde (Sigma) for 15 min at 25°C. After washing 5 times with PBS + 1% BSA, at 1,000 × g for 5 min, T cells were cultured in complete RPMI 1640 media and supplemented with 10% FBS. Bystander B cells were added in co-cultures at a 1:1 B cell:T cell ratio. Naïve T cells without fixation were immediately cultured with bystander B cells. After 2 days of incubation at 37°C and 5% CO2, B-cell activation was measured by fluorescent staining for MHCII (clone M5/114.15.2; FITC) and CD69 (clone H1.2F3; PerCP/Cy5.5).

[2] = tested on: depoted and bystander CD4+ and CD8+ T cells; assay: Paracrine-enhanced proliferation: depoted T cells co-cultured with bystander T cells; type: cell-based, mouse; settings: αCD3/CD28 beads 3 days, n = 5
Description: as §1

[3] = stated as much higher than the input concentration; cited from earlier work
From the text: Thus, multiple lipid tails are a key design parameter for membrane delivery, and may be a simple way to enhance delivery of cargo to plasma membranes. One explanation of lipid-mediated insertion of TLR2 lipid-ligands, i.e., Pam2CSK4 and Pam3CSK4, into plasma membr ...

[4] = co-culture with depoted T cells
[5] = co-culture with non-depoted T cells

Substance | CD8+ T-cell proliferation index, effect of depoting (CD4+ and CD8+ T cells; Figure S5) | CD4+ T-cell division index, depoted vs soluble ligand (CD4+ and CD8+ T cells; n = 3) [fold] | CD8+ T-cell division index, depoted vs soluble ligand (CD4+ and CD8+ T cells; n = 3) [fold] | increase in IL-2 levels, depoted vs soluble ligand (polyclonal T cells) [fold] | ng/mL (equivalent in solution) (purified mouse T cells) [ng/mL] | # Ligands/T cell (purified mouse T cells) | fold increase in number of depoted molecules per T cell, 0.1 to 10 μg/mL depoting concentration (purified mouse T cells) [fold] | MHC II expression, depoted vs 10 μg/mL of soluble ligand ([1]; 2 days co-culture) [fold] | CD69 upregulation on B cells (fold MFI) [1] [fold] | MHC II upregulation on B cells (fold MFI) [1] [fold] | CD69 expression, depoted vs same dose of soluble ligand ([1]; 2 days co-culture) [fold] | MHC II expression, depoted vs same dose of soluble ligand ([1]; 2 days co-culture) [fold] | B-cell activation by dose-matched soluble ligand [1] | bystander CD4+ T-cell division index vs soluble ligand [2, 4] [fold] | bystander CD8+ T-cell division index vs soluble ligand [2, 4] [fold] | CD4+ T-cell division index of depoted cells vs soluble ligand [2, 5] [fold] | CD8+ T-cell division index of depoted cells vs soluble ligand [2, 5] [fold] | critical micelle concentration [3] [µg/mL]
Pam3CSK4 | did enhance | 1.9 | 2.9 | 3.4 | 1.8 | 2.0E+06 | 2.2 | 1.5 | 4.4 | 21 | 2.8 | 6.1 | none of the dose-matched soluble Pam2CSK4 and Pam3CSK4 activated B cells | 1.3 | 1.3 | 1.6 | 1.6 | > 10
Pam2CSK4 | – | – | – | 2.7 | 9.6 | 1.3E+07 | 130 | – | 3.8 | 19 | 2.2 | 5.3 | none of the dose-matched soluble Pam2CSK4 and Pam3CSK4 activated B cells | – | – | – | – | > 10
